In US20240150377A1, “MODULATORS OF CYSTIC FIBROSIS TRANSMEMBRANE CONDUCTANCE REGULATOR” (VERTEX PHARMACEUTICALS INCORPORATED, priority 2020, published 2024):

Molecular target: T1, CFTR (Homo sapiens, UniProt P13569, DEL508-508)
T1 construct: endogenous in cells; host or cells: primary human bronchial epithelial cells from CF subjects (F508del/MF-HBE), differentiated at air-liquid interface
Assay: HBE2 assay: Ussing chamber assay of CFTR-mediated short-circuit currents
Format: cell-based
Settings: F508del/MF-HBE cells, 18-24 hours, 20% human serum; for Emax: read-out: HBE2 Max activity (%)
Description: Ussing Chamber Assay of CFTR-Mediated Short-Circuit Currents
After four days the apical media was removed, and the cells were grown at an air liquid interface for >14 days prior to use.
To isolate the CFTR-mediated short-circuit (ISC) current, F508del/MF-HBE grown on Costar® Snapwell™ cell culture inserts were mounted in an Ussing chamber and the transepithelial ISC was measured under voltage-clamp recording conditions (Vhold=0 mV) at 37° C. […] The CFTR-mediated ISC (μA/cm^2) for each condition was determined from the peak forskolin response to the steady-state current following inhibition.
Identification of Corrector Compounds
The activity of the CFTR corrector compounds on the CFTR-mediated ISC was determined in Ussing chamber studies as described above.

[1] = 3 μM corrector, with 44 nM potentiator

T1 sequence (P13569 with tags, fused parts or gaps DEL508-508): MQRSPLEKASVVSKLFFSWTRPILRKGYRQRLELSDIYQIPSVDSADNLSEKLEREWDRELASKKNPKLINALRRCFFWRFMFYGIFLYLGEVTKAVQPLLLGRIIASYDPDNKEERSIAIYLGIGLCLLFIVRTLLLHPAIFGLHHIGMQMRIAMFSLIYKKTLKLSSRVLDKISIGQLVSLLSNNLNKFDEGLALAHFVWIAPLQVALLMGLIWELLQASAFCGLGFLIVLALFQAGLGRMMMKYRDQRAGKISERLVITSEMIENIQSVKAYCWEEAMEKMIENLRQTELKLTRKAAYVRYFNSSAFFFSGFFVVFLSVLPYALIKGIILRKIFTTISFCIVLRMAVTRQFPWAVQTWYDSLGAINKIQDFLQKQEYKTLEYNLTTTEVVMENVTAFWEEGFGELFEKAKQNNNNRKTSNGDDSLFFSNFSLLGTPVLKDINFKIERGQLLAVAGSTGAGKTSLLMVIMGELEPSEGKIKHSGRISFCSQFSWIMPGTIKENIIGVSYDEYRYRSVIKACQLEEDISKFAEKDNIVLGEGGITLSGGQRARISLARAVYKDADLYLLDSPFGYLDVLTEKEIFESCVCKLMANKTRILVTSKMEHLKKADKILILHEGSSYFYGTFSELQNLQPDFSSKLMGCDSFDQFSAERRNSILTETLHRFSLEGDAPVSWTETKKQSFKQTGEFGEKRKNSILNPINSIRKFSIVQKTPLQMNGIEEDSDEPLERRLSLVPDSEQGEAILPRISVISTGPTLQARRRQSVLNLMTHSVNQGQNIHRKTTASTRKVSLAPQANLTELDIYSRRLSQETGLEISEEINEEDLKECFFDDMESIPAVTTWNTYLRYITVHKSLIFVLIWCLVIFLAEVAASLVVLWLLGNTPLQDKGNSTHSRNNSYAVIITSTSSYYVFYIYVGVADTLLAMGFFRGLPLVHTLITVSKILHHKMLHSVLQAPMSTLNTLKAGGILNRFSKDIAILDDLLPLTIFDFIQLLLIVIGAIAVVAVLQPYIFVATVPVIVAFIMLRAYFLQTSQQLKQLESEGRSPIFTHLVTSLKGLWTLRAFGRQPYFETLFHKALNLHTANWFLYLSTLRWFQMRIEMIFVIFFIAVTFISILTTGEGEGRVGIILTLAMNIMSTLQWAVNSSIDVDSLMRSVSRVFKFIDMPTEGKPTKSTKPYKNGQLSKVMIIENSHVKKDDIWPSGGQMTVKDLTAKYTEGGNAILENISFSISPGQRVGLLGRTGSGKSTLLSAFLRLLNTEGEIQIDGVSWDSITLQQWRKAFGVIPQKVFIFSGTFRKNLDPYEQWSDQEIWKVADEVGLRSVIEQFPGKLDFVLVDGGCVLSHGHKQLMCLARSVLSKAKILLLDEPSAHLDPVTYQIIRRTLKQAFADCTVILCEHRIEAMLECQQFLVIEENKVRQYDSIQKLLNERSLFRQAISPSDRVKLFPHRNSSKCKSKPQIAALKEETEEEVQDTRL

Structure (SMILES)	HBE2 Activity at 3 μM (%) (3 μM, with 44 nM potentiator)	HBE2 Activity at 3 μM (%) [1]	other results
CO[C@H](C)CN(C)c1cncc(CN2C(=O)c3cccc(c3)S(=O)(=O)Nc3nc(cc(-c4c(C)cccc4C)n3)OC[C@H]2CC(C)(C)C)n1 (stereo in doubt) [Compound 1634]	+++ (+++ is >60+)	–	–
Cc1cccc(C)c1-c1cc2nc(n1)NS(=O)(=O)c1cccc(n1)C(=O)N(Cc1cncc(N(C)C3CCC3)n1)[C@H](CC(C)(C)C)CO2 [Compound 1832]	–	+++ (+++ is >60+)	–
Cc1cccc(C)c1-c1cc2nc(n1)NS(=O)(=O)c1cccc(c1)C(=O)N(Cc1cccc([C@@H](C)N3CCCC3)n1)[C@H](CC(C)(C)C)CO2 [Compound 1588]	+++ (+++ is >60+)	–	–
Cc1cccc(C)c1-c1cc2nc(n1)NS(=O)(=O)c1cccc(c1)C(=O)N(Cc1nc(N(C)C3CCC3)c(C)nc1C)[C@H](CC(C)(C)C)CO2 [Compound 1651]	+++ (+++ is >60+)	–	–
Cc1cccc(C)c1-c1cc2nc(n1)NS(=O)(=O)c1cccc(n1)C(=O)N(Cc1cncc(N(C)C3CCC3)c1)[C@H](CC(C)(C)C)CO2 [Compound 1924]	–	+++ (+++ is >60+)	–
Cc1cccc(C)c1-c1cc2nc(n1)NS(=O)(=O)c1cc(n(C)n1)C(=O)N(Cc1cncc(N(C)C3CCC3)n1)[C@H](CC(C)(C)C)CO2 [Compound 1944]	–	+++ (+++ is >60+)	–
CCN(CC1CC1)c1cncc(CN2C(=O)c3cccc(c3)S(=O)(=O)Nc3nc(cc(-c4c(C)cccc4C)n3)OC[C@H]2CC(C)(C)C)n1 [Compound 1780]	–	+++ (+++ is >60+)	–
COC[C@H]1C[C@H](N(C)c2cncc(CN3C(=O)c4cccc(c4)S(=O)(=O)Nc4nc(cc(-c5c(C)cccc5C)n4)OC[C@H]3CC(C)(C)C)n2)C1 [Compound 1620]	+++ (+++ is >60+)	–	–
Cc1cccc(C)c1-c1cc2nc(n1)NS(=O)(=O)c1cccc(c1)C(=O)N(Cc1cncc(N3CC[C@H]4C3CC(=O)N4C)n1)[C@H](CC(C)(C)C)CO2 (stereo in doubt) [Compound 1640]	+++ (+++ is >60+)	–	–
Cc1cccc(C)c1-c1cc2nc(n1)NS(=N)(=O)c1cccc(c1)C(=O)N(Cc1ncc(N3CC(C)(C)C3)cn1)[C@H](CC(C)(C)C)CO2 (single isomer, unassigned) [Compound 1313]	+++ (+++ is >60+)	–	–
CC(=O)N(C)CCN(C)c1cncc(CN2C(=O)c3cccc(c3)S(=O)(=O)Nc3nc(cc(-c4c(C)cccc4C)n3)OC[C@H]2CC(C)(C)C)n1 [Compound 1661]	+++ (+++ is >60+)	–	–
Cc1cccc(C)c1-c1cc2nc(n1)NS(=O)(=O)c1cccc(c1)C(=O)N(Cc1cncc(N3CCC[C@H]3C)n1)[C@H](CCC(C)(C)C)CO2 [Compound 1814]	–	+++ (+++ is >60+)	–
Cc1cccc(C)c1-c1cc2nc(n1)NS(=O)(=O)c1cccc(c1)C(=O)N(Cc1cncc(N3CC(C)(C)[C@H]3C(C)C)n1)[C@H](CC(C)(C)C)CO2 (stereo in doubt) [Compound 1751]	–	+++ (+++ is >60+)	–
Cc1cccc(C)c1-c1cc2nc(n1)NS(=O)(=O)c1cccc(c1)C(=O)N(Cc1cncc(N(C)[C@H]3C[C@H](F)C3)n1)[C@H](CCC1CC1)CO2 [Compound 1916]	–	+++ (+++ is >60+)	–
Cc1cccc(C)c1-c1cc2nc(n1)NS(=O)(=O)c1cccc(c1)C(=O)N(Cc1cncc(N3CC[C@H]4CC[C@H]43)n1)[C@H](CCC(C)(C)C)CO2 (stereo in doubt) [Compound 1855]	–	+++ (+++ is >60+)	–
Cc1cccc(C)c1-c1cc2nc(n1)NS(=O)(=O)c1cccc(c1)C(=O)N(Cc1ncc(OC(C)C)cn1)[C@H](C(C)C1CC1)CO2 (stereo in doubt) [Compound 1557]	+ (+ is <300))	–	–
Cc1cccc(C)c1-c1cc2nc(n1)NS(=O)(=O)c1cccc(c1)C(=O)N(Cc1cncc(N3CCC[C@@H](C)[C@H]3C)n1)[C@H](CC(C)(C)C)CO2 [Compound 1783]	–	+++ (+++ is >60+)	–
CC[C@H](C)[C@@H]1COc2cc(-c3c(C)cccc3C)nc(n2)NS(=O)(=O)c2cccc(c2)C(=O)N1Cc1cncc(N(C)C2CCC2)n1 [Compound 1703]	–	–	EC50 (with 44 nM potentiator): < 1000 nM; Emax (with 44 nM potentiator): > 60%
Cc1cccc(C)c1-c1cc2nc(n1)NS(=O)(=O)c1cccc(c1)C(=O)N(Cc1cncc(N(C)C3CC(F)(F)C3)n1)[C@H](CC(C)(C)C)CO2 [Compound 1602]	–	–	EC50 (with 44 nM potentiator): < 1000 nM; Emax (with 44 nM potentiator): > 60%
Cc1cccc(C)c1-c1cc2nc(n1)NS(=O)(=O)c1cccc(c1)C(=O)N(Cc1cncc(N(C)[C@@H]3C[C@H]4COC[C@H]43)n1)[C@H](CC(C)(C)C)CO2 (stereo in doubt) [Compound 1677]	+++ (+++ is >60+)	–	–
CO[C@H]1C[C@@H](N(C)c2cncc(CN3C(=O)c4cccc(c4)S(=O)(=O)Nc4nc(cc(-c5c(C)cccc5C)n4)OC[C@H]3CC(C)(C)C)n2)C1 [Compound 1611]	+++ (+++ is >60+)	–	–
Cc1cccc(C)c1-c1cc2nc(n1)NS(=O)(=O)c1cccc(c1)C(=O)N(Cc1cncc(N3CCC34COC4)n1)[C@H](CC(C)(C)C)CO2 [Compound 1624]	+++ (+++ is >60+)	–	–
Cc1cccc(C)c1-c1cc2nc(n1)NS(=O)(=O)c1cccc(c1)C(=O)N(Cc1ncc(OC3CCC3)cn1)[C@H](COC(C)C)CO2 [Compound 1956]	–	+++ (+++ is >60+)	–
COC(=O)N(C)CCN(C)c1cncc(CN2C(=O)c3cccc(c3)S(=O)(=O)Nc3nc(cc(-c4c(C)cccc4C)n3)OC[C@H]2CC(C)(C)C)n1 [Compound 1686]	+++ (+++ is >60+)	–	–
Cc1cccc(C)c1-c1cc2nc(n1)NS(=O)(=O)c1cccc(c1)C(=O)N(Cc1cncc(N3CCC[C@@H]3C3CC3)n1)[C@H](COC1CC1)CO2 (stereo in doubt) [Compound 1891]	–	+++ (+++ is >60+)	–

Continued, in another order:

HBE2 Activity at 3 μM (%) (3 μM, with 44 nM potentiator)	HBE2 Activity at 3 μM (%) [1]	Structure (SMILES)	other results
+++ (+++ is >60+)	–	Cc1cccc(C)c1-c1cc2nc(n1)NS(=O)(=O)c1cccc(c1)C(=O)N(Cc1cncc(N3C[C@H]4CCC[C@H]43)n1)[C@H](CC(C)(C)C)CO2 [Compound 1708]	–
–	+++ (+++ is >60+)	Cc1cccc(C)c1-c1cc2nc(n1)NS(=O)(=O)c1cccc(c1)C(=O)N(Cc1cnc3ccn(C)c3n1)[C@H](CC(C)(C)C)CO2 [Compound 1853]	–
–	+++ (+++ is >60+)	COC[C@@H]1CCCN1c1cncc(CN2C(=O)c3cccc(c3)S(=O)(=O)Nc3nc(cc(-c4c(C)cccc4C)n3)OC[C@H]2CC2CCCCC2)n1 [Compound 1867]	–
–	+++ (+++ is >60+)	Cc1cccc(C)c1-c1cc2nc(n1)NS(=O)(=O)c1cccc(c1)C(=O)N(Cc1cnc3cc(C(C)C)n(C)c3n1)[C@H](CC1CCCCC1)CO2 [Compound 1934]	–
–	+++ (+++ is >60+)	Cc1cccc(C)c1-c1cc2nc(n1)NS(=O)(=O)c1cccc(c1)C(=O)N(Cc1cncc(N(C)C3CCC3)n1)[C@H](CC1CCCCC1)CO2 [Compound 1804]	–
–	+++ (+++ is >60+)	Cc1cccc(C)c1-c1cc2nc(n1)NS(=O)(=O)c1cccc(c1)C(=O)N(Cc1cncc(N3CCCC[C@H]3C)n1)[C@H](CC1CC1)CO2 [Compound 1792]	–
–	+++ (+++ is >60+)	CCc1cc2ncc(CN3C(=O)c4cccc(c4)S(=O)(=O)Nc4nc(cc(-c5c(C)cccc5C)n4)OC[C@H]3CC(C)(C)C)nc2n1C [Compound 1911]	–
+++ (+++ is >60+)	–	Cc1cccc(C)c1-c1cc2nc(n1)NS(=O)(=O)c1cccc(c1)C(=O)N(Cc1cncc(N(C)C3CCC3)n1)[C@H](CC1(C)CCC1)CO2 [Compound 1683]	EC50 (with 44 nM potentiator): < 1000 nM; Emax (with 44 nM potentiator): > 60%
–	+++ (+++ is >60+)	Cc1cccc(C)c1-c1cc2nc(n1)NS(=O)(=O)c1cccc(c1)C(=O)N(Cc1cnc3cc(C(C)C)n(C)c3n1)[C@H](CC1(C)CCC1)CO2 [Compound 1829]	–
–	+++ (+++ is >60+)	Cc1cccc(C)c1-c1cc2nc(n1)NS(=O)(=O)c1cccc(c1)C(=O)N(Cc1cnc3oc(C(C)C)cc3n1)[C@H](CC(C)(C)C)CO2 [Compound 1333, (11R)-6-(2,6-Dimethylphenyl)-11-(2,2-dimethylpropyl)-12-[(6-isopropylfuro[2,3-b]pyrazin-2-yl)methyl]-2,2-dioxo-9-oxa-2λ6-thia-3,5,12,19-tetrazatricyclo[12.3.1.14,8]nonadeca-1(18),4(19),5,7,14,16-hexaen-13-one]	–
+++ (+++ is >60+)	–	Cc1cccc(C)c1-c1cc2nc(n1)NS(=O)(=O)c1cccc(c1)C(=O)N(Cc1cncc(N(C)C3CCC3)n1)[C@H](CCC(C)C)CO2 [Compound 1685]	EC50 (with 44 nM potentiator): < 1000 nM; Emax (with 44 nM potentiator): > 60%
–	+++ (+++ is >60+)	Cc1cccc(C)c1-c1cc2nc(n1)NS(=O)(=O)c1cccc(c1)C(=O)N(Cc1cncc(N(C)C3CCC3)n1)[C@H](COC1CC1)CO2 [Compound 1893]	–
–	+++ (+++ is >60+)	CCn1c(C)cc2ncc(CN3C(=O)c4cccc(c4)S(=O)(=O)Nc4nc(cc(-c5c(C)cccc5C)n4)OC[C@H]3CC(C)(C)C)nc21 [Compound 1910]	–
–	+++ (+++ is >60+)	Cc1cccc(C)c1-c1cc2nc(n1)NS(=O)(=O)c1cccc(c1)C(=O)N(Cc1cncc(N(C)CC(C)C)n1)[C@H](CC1CCC1)CO2 [Compound 1712]	EC50 (corrector at a range of concentrations with 44 nM potentiator): < 1000 nM; Emax (with 44 nM potentiator): > 60%
–	+++ (+++ is >60+)	Cc1cccc(C)c1-c1cc2nc(n1)NS(=O)(=O)c1cccc(c1)C(=O)N(Cc1cncc(N3CCC[C@H]3C(C)C)n1)[C@H](CC1CCCC1)CO2 [Compound 1846]	–
